Measurements: patent publication US10165777B2, “Substituted pyrazolylpyrazole derivative and use of same as herbicide” (KYOYU AGRI CO., LTD., priority 2015, dated 2019)

Legend:
Type in all cases: in vivo
[1] = tested on: Amaranthus retroflexus; assay: Farming soil treatment test; conditions: soil surface spray prior to weed growth, 30 days
Description: (§1) Field soil was filled into a 1/6000 are pot followed by seeding with Digitaria ciliaris, Chenopodium album and Amaranthus retroflexus and covering with soil. Wettable powders of compounds of formula (I) shown in Table 1 prepared in compliance with the preparation examples were diluted with water to the prescribed amount of chemical and uniformly sprayed onto each soil surface layer using 100 liters of sprayed water per 10 are prior to weed growth following seeding. After treating for 30 days in a glass greenhouse at an average atmospheric temperature of 30° C., the herbicidal efficacy thereof was investigated. Evaluation of herbicidal efficacy was carried out in the same manner as the above-mentioned Test Example 1.

[2] = tested on: Digitaria ciliaris; assay: Farming soil treatment test; conditions: soil surface spray prior to weed growth, 30 days
Description: as §1

[3] = tested on: Chenopodium album; assay: Farming soil treatment test; conditions: soil surface spray prior to weed growth, 30 days
Description: as §1

[4] = tested on: Amaranthus retroflexus; assay: Weed foliar treatment test (Test 3, 1.0 to 2.0 leaf stage); conditions: foliar spray at 1.0 to 2.0 leaf stage of Digitaria ciliaris, 3 weeks
Description: (§2) Soil was filled into a 1/6000 are pot followed by seeding with Digitaria ciliaris, Chenopodium album and Amaranthus retroflexus, covering with soil, and cultivating in a glass greenhouse at an average atmospheric temperature of 25° C. Wettable powders of Target Compound (I) shown in Table 1 prepared in compliance with the preparation examples were diluted with water to the prescribed amount of chemical and uniformly sprayed onto the weeds using 150 liters of sprayed water per 10 are when Digitaria ciliaris had grown to the 1.0 to 2.0 leaf stage. After treating for 3 weeks in a glass greenhouse at an average atmospheric temperature of 25° C., the herbicidal efficacy thereof was investigated. Evaluation of herbicidal efficacy was carried out in the same manner as the above-mentioned Test Example 1.

[5] = tested on: Digitaria ciliaris; assay: as above; conditions: foliar spray at 1.0 to 2.0 leaf stage of Digitaria ciliaris, 3 weeks
Description: as §2

[6] = tested on: Chenopodium album; assay: as above; conditions: foliar spray at 1.0 to 2.0 leaf stage of Digitaria ciliaris, 3 weeks
Description: as §2

[7] = tested on: Oryza sativa; assay: Paddy herbicidal activity test, phytotoxicity to transplanted rice; conditions: rice transplanted in 2.0 leaf stage, 30 days
Description: (§3) 1. Paddy Herbicidal Activity Test Rice paddy soil was filled into a 1/10000 are pot followed by the addition of suitable amounts of water and chemical fertilizer, kneading, seeding with Echinochloa crus-galli, Monochoria vaginalis and Scirpus juncoides and maintaining in an irrigated state at a water depth of 3 cm. Wettable powders of Target Compound (I) shown in Table 1 prepared in compliance with the preparation examples were diluted with a suitable amount of water, rice plants in the 2.0 leaf stage were transplanted during 3.5 leaf stage of Echinochloa crus-galli, and treated by dropping in chemical in the prescribed amount per 10 are using a pipette. After treating for 30 days in a glass greenhouse at an average atmospheric temperature of 30° C., the herbicidal efficacy thereof was investigated. Evaluation of herbicidal efficacy was carried out by comparing growth inhibition rate (%) with an untreated group, while evaluation of phytotoxicity was carried out by comparing growth inhibition rate (%) with the state of a complete eradication group, and were evaluated at 11 levels indicated below.

[8] = tested on: Scirpus juncoides; assay: Paddy herbicidal activity test; conditions: irrigated pot, 30 days
Description: as §3

[9] = tested on: Echinochloa crus-galli; assay: Paddy herbicidal activity test; conditions: irrigated pot, treated at 3.5 leaf stage of Echinochloa crus-galli, 30 days
Description: as §3

[10] = tested on: Monochoria vaginalis; assay: Paddy herbicidal activity test; conditions: irrigated pot, 30 days
Description: as §3

[11] = tested on: Galinsoga parviflora; assay: Weed foliar treatment test (Test 4, 4.0 to 5.0 leaf stage); conditions: 10 g a.i./10 a; foliar spray at 4.0 to 5.0 leaf stage of Digitaria ciliaris; 20 days
Description: (§4) Field soil was filled into a 1/4500 are pot followed by seeding with Digitaria ciliaris and Galinsoga parviflora, covering with soil and cultivating in a glass greenhouse at an average atmospheric temperature of 25° C.
(§5) Wettable powders of Target Compound (I) shown in Table 1 prepared in compliance with the preparation examples were diluted with water to the prescribed amount of chemical and uniformly sprayed onto the weeds using 100 liters of sprayed water per 10 are when Digitaria ciliaris had grown to the 4.0 to 5.0 leaf stage (plant height: 10 cm to 15 cm).
(§6) After treating for 20 days in a glass greenhouse at an average atmospheric temperature of 25° C., the herbicidal efficacy thereof was investigated.
(§7) Evaluation of herbicidal efficacy was carried out in the same manner as the above-mentioned Test Example 1.

[12] = tested on: Digitaria ciliaris; assay: as above; conditions: 10 g a.i./10 a; foliar spray at 4.0 to 5.0 leaf stage of Digitaria ciliaris (plant height 10 cm to 15 cm); 20 days
Description: as §4, §5, §6, §7

N#Cc1cnn(-c2nn3c(c2Cl)CCCC3)c1N=CC1CCCCC1 [Compound 1, 1-(3-chloro-4,5,6,7-tetrahydropyrazolo[1,5-a]pyridin-2-yl)-5-(cyclohexylmethyleneamino)pyrazole-4-carbonitrile]
herbicidal efficacy, Amaranthus retroflexus ([1]; 5 g a.i./10 a): 10 (100%) | herbicidal efficacy, Amaranthus retroflexus ([1]; 10 g a.i./10 a): 10 (100%) | herbicidal efficacy, Digitaria ciliaris ([2]; 5 g a.i./10 a): 9 (90% to less than 100%) | herbicidal efficacy, Digitaria ciliaris ([2]; 10 g a.i./10 a): 9 (90% to less than 100%) | herbicidal efficacy, Chenopodium album ([3]; 5 g a.i./10 a): 9 (90% to less than 100%) | herbicidal efficacy, Chenopodium album ([3]; 10 g a.i./10 a): 10 (100%) | herbicidal efficacy, Amaranthus retroflexus ([4]; 5 g a.i./10 a): 10 (100%) | herbicidal efficacy, Amaranthus retroflexus ([4]; 10 g a.i./10 a): 10 (100%) | herbicidal efficacy, Digitaria ciliaris ([5]; 5 g a.i./10 a): 10 (100%) | herbicidal efficacy, Digitaria ciliaris ([5]; 10 g a.i./10 a): 10 (100%) | herbicidal efficacy, Chenopodium album ([6]; 5 g a.i./10 a): 10 (100%) | herbicidal efficacy, Chenopodium album ([6]; 10 g a.i./10 a): 10 (100%) | phytotoxicity, Oryza sativa ([7]; 1 g a.i./10 a): 0 (0% to less than 10% (growth inhibition rate)) | phytotoxicity, Oryza sativa ([7]; 5 g a.i./10 a): 0 (0% to less than 10% (growth inhibition rate)) | herbicidal efficacy, Scirpus juncoides ([8]; 1 g a.i./10 a): 9 (90% to less than 100%) | herbicidal efficacy, Scirpus juncoides ([8]; 5 g a.i./10 a): 10 (100%) | herbicidal efficacy, Echinochloa crus-galli ([9]; 1 g a.i./10 a): 10 (100%) | herbicidal efficacy, Echinochloa crus-galli ([9]; 5 g a.i./10 a): 10 (100%) | herbicidal efficacy, Monochoria vaginalis ([10]; 1 g a.i./10 a): 9 (90% to less than 100%) | herbicidal efficacy, Monochoria vaginalis ([10]; 5 g a.i./10 a): 10 (100%)

N#Cc1cnn(-c2nn3c(c2Cl)CCCC3)c1N=C1CCCC1 [Compound 8]
herbicidal efficacy, Galinsoga parviflora [11]: 10 (100%) | herbicidal efficacy, Digitaria ciliaris [12]: 10 (100%)

N#Cc1cnn(-c2nn3c(c2Cl)CCCC3)c1N=Cc1ccccc1OC(F)F [Compound 12]
herbicidal efficacy, Galinsoga parviflora [11]: 10 (100%) | herbicidal efficacy, Digitaria ciliaris [12]: 10 (100%)

N#Cc1cnn(-c2nn3c(c2Cl)CCCC3)c1N=Cc1ccccc1F [Compound 13]
herbicidal efficacy, Galinsoga parviflora [11]: 10 (100%) | herbicidal efficacy, Digitaria ciliaris [12]: 10 (100%)

N#Cc1cnn(-c2nn3c(c2Cl)CCCC3)c1N=Cc1cccc(Cl)c1 [Compound 17]
herbicidal efficacy, Galinsoga parviflora [11]: 10 (100%) | herbicidal efficacy, Digitaria ciliaris [12]: 10 (100%)

Cc1ccc(C=Nc2c(C#N)cnn2-c2nn3c(c2Cl)CCCC3)cc1 [Compound 18]
herbicidal efficacy, Galinsoga parviflora [11]: 10 (100%) | herbicidal efficacy, Digitaria ciliaris [12]: 10 (100%)

N#Cc1cnn(-c2nn3c(c2Cl)CCCC3)c1N=Cc1ccc(C(F)(F)F)cc1 [Compound 19]
herbicidal efficacy, Galinsoga parviflora [11]: 10 (100%) | herbicidal efficacy, Digitaria ciliaris [12]: 10 (100%)

N#Cc1cnn(-c2nn3c(c2Cl)CCCC3)c1N=Cc1ccc(Cl)cc1 [Compound 20]
herbicidal efficacy, Galinsoga parviflora [11]: 10 (100%) | herbicidal efficacy, Digitaria ciliaris [12]: 10 (100%)

N#Cc1cnn(-c2nn3c(c2Cl)CCCC3)c1N=Cc1ccccn1 [Compound 21]
herbicidal efficacy, Galinsoga parviflora [11]: 10 (100%) | herbicidal efficacy, Digitaria ciliaris [12]: 10 (100%)

N#Cc1cnn(-c2nn3c(c2Cl)CCCC3)c1N=Cc1cccnc1 [Compound 22]
herbicidal efficacy, Galinsoga parviflora [11]: 10 (100%) | herbicidal efficacy, Digitaria ciliaris [12]: 9 (90% to less than 100%) | herbicidal efficacy, Amaranthus retroflexus ([1]; 5 g a.i./10 a): 10 (100%) | herbicidal efficacy, Amaranthus retroflexus ([1]; 10 g a.i./10 a): 10 (100%) | herbicidal efficacy, Digitaria ciliaris ([2]; 5 g a.i./10 a): 9 (90% to less than 100%) | herbicidal efficacy, Digitaria ciliaris ([2]; 10 g a.i./10 a): 9 (90% to less than 100%) | herbicidal efficacy, Chenopodium album ([3]; 5 g a.i./10 a): 9 (90% to less than 100%) | herbicidal efficacy, Chenopodium album ([3]; 10 g a.i./10 a): 10 (100%) | phytotoxicity, Oryza sativa ([7]; 1 g a.i./10 a): 0 (0% to less than 10% (growth inhibition rate)) | phytotoxicity, Oryza sativa ([7]; 5 g a.i./10 a): 1 (10% to less than 20%) | herbicidal efficacy, Scirpus juncoides ([8]; 1 g a.i./10 a): 10 (100%) | herbicidal efficacy, Scirpus juncoides ([8]; 5 g a.i./10 a): 10 (100%) | herbicidal efficacy, Echinochloa crus-galli ([9]; 1 g a.i./10 a): 10 (100%) | herbicidal efficacy, Echinochloa crus-galli ([9]; 5 g a.i./10 a): 10 (100%) | herbicidal efficacy, Monochoria vaginalis ([10]; 1 g a.i./10 a): 10 (100%) | herbicidal efficacy, Monochoria vaginalis ([10]; 5 g a.i./10 a): 10 (100%)

CC(=Nc1c(C#N)cnn1-c1nn2c(c1Cl)CCCC2)c1ccccn1 [Compound 24]
herbicidal efficacy, Galinsoga parviflora [11]: 10 (100%) | herbicidal efficacy, Digitaria ciliaris [12]: 10 (100%)

CC(=Nc1c(C#N)cnn1-c1nn2c(c1Cl)CCCC2)c1cccnc1 [Compound 25]
herbicidal efficacy, Galinsoga parviflora [11]: 10 (100%) | herbicidal efficacy, Digitaria ciliaris [12]: 10 (100%)

CC(=Nc1c(C#N)cnn1-c1nn2c(c1Cl)CCCC2)c1cnccn1 [Compound 27]
herbicidal efficacy, Galinsoga parviflora [11]: 10 (100%) | herbicidal efficacy, Digitaria ciliaris [12]: 10 (100%)

N#Cc1cnn(-c2nn3c(c2Cl)CCCC3)c1N=Cc1ccc[nH]1 [Compound 28]
herbicidal efficacy, Galinsoga parviflora [11]: 10 (100%) | herbicidal efficacy, Digitaria ciliaris [12]: 10 (100%)

CC(=Nc1c(C#N)cnn1-c1nn2c(c1Cl)CCCC2)c1ccc[nH]1 [Compound 29]
herbicidal efficacy, Galinsoga parviflora [11]: 10 (100%) | herbicidal efficacy, Digitaria ciliaris [12]: 10 (100%) | herbicidal efficacy, Amaranthus retroflexus ([4]; 5 g a.i./10 a): 9 (90% to less than 100%) | herbicidal efficacy, Amaranthus retroflexus ([4]; 10 g a.i./10 a): 10 (100%) | herbicidal efficacy, Digitaria ciliaris ([5]; 5 g a.i./10 a): 9 (90% to less than 100%) | herbicidal efficacy, Digitaria ciliaris ([5]; 10 g a.i./10 a): 10 (100%) | herbicidal efficacy, Chenopodium album ([6]; 5 g a.i./10 a): 10 (100%) | herbicidal efficacy, Chenopodium album ([6]; 10 g a.i./10 a): 10 (100%)

N#Cc1cnn(-c2nn3c(c2Cl)CCCC3)c1N=Cc1ccsc1 [Compound 31]
herbicidal efficacy, Galinsoga parviflora [11]: 10 (100%) | herbicidal efficacy, Digitaria ciliaris [12]: 10 (100%)

N#Cc1cnn(-c2nn3c(c2Cl)CCCC3)c1N=Cc1ccoc1 [Compound 32]
herbicidal efficacy, Galinsoga parviflora [11]: 10 (100%) | herbicidal efficacy, Digitaria ciliaris [12]: 10 (100%)

CCOC=Nc1c(C#N)cnn1-c1nn2c(c1Cl)CCCC2 [Compound 34]
herbicidal efficacy, Galinsoga parviflora [11]: 10 (100%) | herbicidal efficacy, Digitaria ciliaris [12]: 9 (90% to less than 100%)

CC(C)OC=Nc1c(C#N)cnn1-c1nn2c(c1Cl)CCCC2 [Compound 36]
herbicidal efficacy, Galinsoga parviflora [11]: 10 (100%) | herbicidal efficacy, Digitaria ciliaris [12]: 10 (100%)

CCCCOC=Nc1c(C#N)cnn1-c1nn2c(c1Cl)CCCC2 [Compound 37]
herbicidal efficacy, Galinsoga parviflora [11]: 10 (100%) | herbicidal efficacy, Digitaria ciliaris [12]: 10 (100%)
